Patent US20220378780A1, “PHARMACEUTICAL COMPOSITIONS COMPRISING POH DERIVATIVES” (NeOnc Technologies, Inc., priority 2019, published 2022)
“Also recorded” adds a separate entry of the source. Read-outs that look alike come from different tables or passages of the source.

Experiments:
[1] = test system: tumor brain endothelial cells (TuBEC); assay: MTT cytotoxicity assay, tumor brain endothelial cells; assay type: cell-based
Excerpt: (§1) Cancer Lett. 2011 Mar. 28; 302(2):100-8.

[2] = test system: HuT 78 cells; assay: MTT assay on HuT 78 cells (Example 14); settings: HuT 78, 72 hours
Method: HuT 78 cells are cutaneous T lymphocytes derived from a patient with Sézary syndrome.
HuT 78 cells were treated in vitro with (i) temozolomide (50, 100, 250 μM), (ii) POH-TMZ conjugate (“NEO212”, 25, 50, 100 μM), (iii) NEO412 which is the triple conjugate of temozolomide (TMZ), perillyl alcohol (POH), and linoleic acid (25, 50, 100, 250 μM), or (iv) vehicle alone. Seventy-two hours after the addition of drugs or vehicle, cell viability was determined by standard MTT (methylthiazoletetrazolium) assay.

[3] = test system: TMZ resistant cells (U251TR); assay: MTT cytotoxicity assay, U251TR
Method: (§2) MTT cytotoxicity assays were carried out after cells were treated with the TMZ-POH conjugate. The MTT cytotoxicity assays were carried out as described in Chen TC, et al. Green tea epigallocatechin gallate enhances therapeutic efficacy of temozolomide in orthotopic mouse glioblastoma models. Cancer Lett. 2011 Mar. 28; 302(2):100-8.

[4] = test system: USC-04 glioma cancer stem cells; assay: MTT cytotoxicity assay, USC-04; assay type: cell-based; settings: USC-04, MTT
Excerpt: as §1

[5] = test system: USC-02 glioma cancer stem cells; assay: MTT cytotoxicity assay, USC-02; assay type: cell-based; settings: USC-02, MTT
Excerpt: as §1

[6] = Toxicity studies in Beagle dogs; assay type: in vivo; settings: Beagle dogs (unpublished)
Excerpt: (§3) Compared to both of its individual components, TMZ and POH, NEO212 exerts substantially greater cytotoxic activity, potentially via involvement of the pro-apoptotic module of the ER stress response mechanism, although its alkylating activity might contribute as well. As a next step in NEO212's development, in vivo experiments in immunodeficient murine CTCL models should be performed. We have attempted such models, but tumor take with our CTCL cell lines was unacceptably low, not inconsistent with reported challenges of achieving consistent tumor growth with these and other CTCL cell lines in general^57-59 It is conceivable that serial passage of positive tumors in mice would yield more aggressive cells, and we are considering pursuing this approach.

[7] = test system: ER stress (CHOP) in TMZ sensitive and resistant U251 glioma cells; assay: Western blot of ER stress (CHOP) in U251 glioma cells; assay type: cell-based, human; settings: 18 hr treatment
Method: TMZ sensitive and resistant glioma cells Western blots were performed after TMZ sensitive and resistant glioma cells were treated with the TMZ-POH conjugate for 18 hr. […] Activation of the proapoptic protein CHOP was shown at concentrations as low as 60 uM of TMZ-POH.

[8] = test system: cleaved PARP and cleaved caspases 3 and 4 in HUT78, HUT102 and MyLa cells; assay: Western blot of apoptosis markers (cleaved PARP-1, cleaved caspases); assay type: cell-based, human
Excerpt: (§4) 2. Material and methods 2.1. […] 2.2. […] 2.3. […] 2.4. […] 2.5.

[9] = test system: HUT102 cells; assay: MTT cell viability assay, HUT102 (Example 15); assay type: cell-based, human
Excerpt: as §4

[10] = test system: TMZ sensitive (U251) cells; assay: Colony forming assay, TMZ sensitive U251; assay type: cell-based, human
Method: (§5) Colony forming assays were carried out after cells were treated with TMZ alone, POH alone, and the TMZ-POH conjugate. […] Cancer Lett. 2011 Mar. 28; 302(2):100-8.

[11] = Toxicity studies in mice; assay type: in vivo
Excerpt: as §3

[12] = test system: HUT78 cells; assay: MTT cell viability assay, HUT78 (Example 15)
Method: Pharmacological agents—NEO212 was dissolved in DMSO at 100 mM. TMZ was purchased from Sigma Aldrich (St. Louis, Mo.) and dissolved in DMSO (Santa Cruz Biotechnology, Dallas, Tex.) to a concentration of 50 mM. POH was purchased from Sigma-Aldrich and diluted in DMSO to 100 mM. […] Stock solutions of all drugs were stored at −20° C. Staurosporine (STSP) was purchased from Selleck Chemicals (Houston, Tex.), stored at 4° C. protected from light, and dissolved in DMSO before use. Ascorbic acid (AA) and beta-mercaptoethanol (b-ME) (Sigma Aldrich) were prepared fresh before use. Crystalline AA was dissolved in phosphate-buffered saline (PBS) to 25 mM; b-ME was diluted in medium to 25 mM. […] Cell lines—Three different human CTLC cell lines were used. […] Both media also contained 100 U/mL penicillin and 0.1 mg/mL streptomycin. Penicillin, streptomycin, and RPMI (prepared with raw materials from Cellgro/MediaTech, Manassas, Va.) were provided by the Cell Culture Core lab of the USC/Norris Comprehensive Cancer Center. […] Cells were kept in a humidified incubator at 37° C. and a 5% CO2 atmosphere. FBS was obtained from Omega Scientific (Tarzana, Calif.) and from X&Y Cell Culture (Kansas City, Mo.). […] MTT assay—Methylthiazoletetrazolium (MTT) assays were performed as follows. Cells were seeded into 96-well plates in a volume of 50 μL per well at 3.0-5.0×10^5 cells/mL. An additional 50 μL of medium containing various concentrations of drug (or vehicle) was added and the cells were incubated for different lengths of time. This was followed by the addition of 10 μL thiazolyl-blue tetrazolium (i.e., MTT; Sigma Aldrich) from a stock solution of 5 mg/mL in phosphate-buffered saline (PBS). Cells were returned to the incubator for 4 hours. Thereafter, the reaction was stopped and the cells were lysed by the addition of 100 μL solubilization solution (10% sodium dodecyl sulfate in 0.01 M hydrochloric acid). The 96-well plate was left in the cell culture incubator over night for complete solubilization of the MTT crystals, and the optical density (OD) of each well was determined the next day in an ELISA plate reader at 560 nm. The background value (=OD of control wells containing medium without cells+MTT+solubilization solution) was subtracted from all measured values. In individual experiments, each treatment condition was set up in quadruplicate, and each experiment was repeated several times independently. […] Cell proliferation analysis—Cell proliferation was assessed by counting cells over time. Independent cell cultures were exposed to different concentrations of NEO212. At different times, aliquots of cells were removed, mixed with Trypan blue, and counted in a hemocytometer. Blue cells were considered dead, whereas unstained cells were counted as live cells. […] Fluorescence-activated cell sorting (FACS) analysis—Cells were seeded in 6-well tissue culture plates at 2×10^5 cells/mL, followed by drug treatment. After 72 hours, cells were collected, washed twice with PBS, transferred to a microcentrifuge tube, and suspended in 200 μL of 1× binding buffer solution, which was made fresh from 10x binding buffer (0.2 μm sterile-filtered 0.1 M HEPES, pH 7.4; 1.4 M NaCl; 25 mM CaCl2)). Then 1 μL of a 1 mg/mL 7-amino-actinomycin D (7-AAD) solution (Thermo Fisher Scientific, Waltham, Mass.) was added. After 20 minutes of incubation on ice, cell fluorescence was analyzed on a FACSAria Flow Cytometer (Becton Dickinson Biosciences Ltd., Franklin Lakes, N.J.).

[13] = test system: brain endothelial cells (BEC; confluent and subconfluent); assay: MTT cytotoxicity assay, brain endothelial cells; assay type: cell-based
Excerpt: as §1

[14] = test system: U87, A172 and U251 human glioma cells; assay: MTT cytotoxicity assay on human malignant glioma cells; assay type: cell-based
Excerpt: In vitro efficacy of the present composition can be determined using methods well known in the art. For example, the cytotoxicity of the present monoterpene (or sesquiterpene) and/or the therapeutic agents may be studied by MTT [3-(4,5-dimethylthiazol-2-yl)-2,5-diphenyl tetrazolium bromide] cytotoxicity assay. MTT assay is based on the principle of uptake of MTT, a tetrazolium salt, by metabolically active cells where it is metabolized into a blue colored formazon product, which can be read spectrometrically. J. of Immunological Methods 65: 55 63, 1983. The cytotoxicity of the present monoterpene (or sesquiterpene) derivative and/or the therapeutic agents may be studied by colony formation assay. Functional assays for inhibition of VEGF secretion and IL-8 secretion may be performed via ELISA. Cell cycle block by the present monoterpene (or sesquiterpene) derivative and/or the therapeutic agents may be studied by standard propidium iodide (PI) staining and flow cytometry. Invasion inhibition may be studied by Boyden chambers. In this assay a layer of reconstituted basement membrane, Matrigel, is coated onto chemotaxis filters and acts as a barrier to the migration of cells in the Boyden chambers. Only cells with invasive capacity can cross the Matrigel barrier. Other assays include, but are not limited to cell viability assays, apoptosis assays, and morphological assays.
Then U87, A172 and U251 cells were treated with dimethyl celecoxib bisPOH carbamate (POH-DMC) (e.g., synthesized by the method in Example 1), and the MTT cytotoxicity assays performed (FIG. 2).
Then TMZ-resistant glioma cell lines U87, A172 and U251 cells were treated with temozolomide POH carbamate (POH-TMZ) (e.g., synthesized by the method in Example 3).

[15] = test system: TMZ sensitive cells (U251); assay: MTT cytotoxicity assay, U251
Method: as §2

[16] = test system: HUT102 cells; assay: Cell proliferation by Trypan blue exclusion counting, HUT102; assay type: cell-based, human; settings: HUT102, 1 μM
Excerpt: as §4

[17] = test system: MyLa cells; assay: Cell proliferation by Trypan blue exclusion counting, MyLa; assay type: cell-based, human; settings: 1 μM
Excerpt: as §4

[18] = test system: CHOP, c-myc and cyclin D in HUT78, HUT102 and MyLa cells; assay: Western blot of ER stress and proliferation markers; assay type: cell-based, human; settings: for lowest concentration triggering near-maximal CHOP induction: 72 hours
Excerpt: as §4

[19] = test system: HUT78 cells; assay: Cell proliferation by Trypan blue exclusion counting, HUT78; assay type: cell-based, human; settings: HUT78, 1 μM
Excerpt: as §4

[20] = test system: HUT78 cells; assay: FACS analysis of cell death with 7-AAD; assay type: cell-based, human; settings: 72 hours
Excerpt: as §4

[21] = test system: normal astrocytes; assay: MTT cytotoxicity assay, normal astrocytes; settings: listed as TMZ-POH
Method: as §2

[22] = test system: TMZ resistant (U251TR) U251 cells; assay: Colony forming assay, TMZ resistant U251TR; assay type: cell-based, human
Method: as §5

[23] = test system: MyLa cells; assay: MTT cell viability assay, MyLa (Example 15); assay type: cell-based, human
Excerpt: as §4

C=C(C)C1CC=C(COC(=O)NC(=O)c2ncn3c(=O)n(C)nnc23)CC1 (centres unmarked) [NEO212]
cytotoxicity in MTT assay [1]: did not induce significant cytotoxicity | cytotoxic effect on MF cells in MTT assay [2]: pronounced cytotoxic effect | cytotoxicity in MTT assay [3]: demonstrated cytotoxicity | IC50 [4]: 150 µM | IC50 [5]: 60 µM | tolerability [6]: very well tolerated | concentration at which activation of CHOP was shown ([7]; as low as): 60 µM | induction of ER stress (ERS) ([7]; western blot): induces ER stress | concentration at which apoptosis markers emerged ([8]; HUT78 and HUT102 cells): 0.1 to 1.0 µM | concentration required for apoptosis markers ([8]; MyLa cells): 30 µM | induction of apoptosis markers ([8]; all three CTCL cell lines): appearance of cleaved PARP and cleaved (i.e., activated) caspases 3 and 4 | IC50 ([9]; HUT102, 72 hours): 9 µM | IC50 ([9]; HUT102, 96 hours): 3 µM | cytotoxicity in colony forming assay ([10]; listed as POH-TMZ): substantially greater potency compared to POH alone | cytotoxicity in colony forming assay ([10]; listed as TMZ-POH): demonstrated cytotoxicity | tolerability [11]: very well tolerated | reduction of viability ([12]; HUT78, 10 μM): over 50% | concentration of earliest effect on viability ([12]; HUT78, 24 hours, as low as): 3 µM | IC50 ([12]; HUT78, 48 hours): < 3 µM | IC50 ([12]; HUT78, 72 hours): ~4 µM | potency relative to that of TMZ ([12]; HUT78 cells): over 100 fold | IC50 ([12]; read-out: IC50 (50% decrease in viability), HUT78, 24 hours): 8 µM | cytotoxicity in MTT assay ([13]; confluent BEC): did not induce significant cytotoxicity | cytotoxicity in MTT assay ([13]; subconfluent BEC, high concentrations): Mild to moderate cytotoxicity | cytotoxicity in MTT assay [14]: substantially higher kill rates | cytotoxicity in MTT assay [15]: demonstrated cytotoxicity | proliferation-inhibitory effect [16]: slightly less pronounced activity | proliferation-inhibitory effect [17]: weaker activity | lowest concentration triggering near-maximal CHOP induction ([18]; HUT78 cells): 0.1 µM | expression levels of c-myc and cyclin D proteins ([18]; HUT102 and MyLa cells): declined | lowest concentration triggering near-maximal CHOP induction ([18]; HUT102 cells): 1.0 µM | concentration dependence of CHOP induction ([18]; MyLa cells, 96 hours): gradual increase all the way up to 100 μM | induction of CHOP protein ([18]; all three CTCL cell lines): prominent induction of CHOP protein | proliferation-inhibitory effect [19]: strongest effect | cell death ([20]; HUT78, 1 μM): 33% | cell death ([20]; HUT78, 30 μM): 50% | cytotoxicity in MTT assay [21]: not towards normal astrocytes; also recorded: did not induce significant cytotoxicity | cytotoxicity in colony forming assay ([22]; listed as POH-TMZ): substantially greater potency compared to POH alone | cytotoxicity in colony forming assay ([22]; listed as TMZ-POH): demonstrated cytotoxicity | IC50 ([23]; 72 hours): ~130 µM | IC50 ([23]; 96 hours): ~85 µM
